Measured values taken from patent publication US20140275276A1, “PHARMACEUTICAL COMPOSITION OF S-KETAMINE HYDROCHLORIDE” (JANSSEN PHARMACEUTICA NV, priority 2013, published 2014).

Tests used:
Type in all cases: cell-based
[1] = system: environmental isolate Staphylococcus haemolyticus; experiment: Microbial challenge test; details: spike 10^5-10^6 CFU/ml, room temperature
Source text: (§1) A challenge test was initiated to investigate whether the formulation could prevent microorganisms from proliferating. The challenge test consisted of challenging the formulation with a prescribed inoculum of microorganisms. The inoculated formulation was then stored at room temperature and at specified time intervals a sample was withdrawn to count the microorganisms in the sample.

[2] = system: environmental Micrococcus Luteus; experiment: Full AET challenge test; details: spike 10^5-10^6 CFU/ml, room temperature
Source text: as §1
(§2) The formulations listed in Table 3 were additionally subjected to a Full AET challenge, with results for the individual formulations are shown in Tables 5-8, below. Additionally, Table 9 below, provides results for a Full AET challenge of a reference formulation containing 0.00 mg/mL S-ketamine hydrochloride, denatonium benzoate (to mimic the taste of the S-ketamine HCl formulation(s)), and adjusted to pH 5.21 with 1N NaOH.

[3] = system: Pseudomonas aeruginosa; experiment: Microbial challenge test / Full AET challenge test; details: spike 10^5-10^6 CFU/ml, room temperature
Source text: as §1, §2

[4] = system: Candida albicans; experiment: Microbial challenge test / Full AET challenge test; details: spike 10^5-10^6 CFU/ml, room temperature
Source text: as §1, §2

[5] = system: Staphylococcus aureus; experiment: Microbial challenge test / Full AET challenge test; details: spike 10^5-10^6 CFU/ml, room temperature
Source text: as §1, §2

[6] = system: Escherichia coli; experiment: Microbial challenge test / Full AET challenge test; details: spike 10^5-10^6 CFU/ml, room temperature
Source text: as §1, §2

[7] = system: Aspergillus brasiliensis; experiment: Microbial challenge test / Full AET challenge test; details: spike 10^5-10^6 CFU/ml, 28 days of incubation at room temperature
Source text: as §1, §2

CN[C@]1(c2ccccc2Cl)CCCCC1=O.Cl [S-ketamine hydrochloride, (S)-2-(2-chlorophenyl)-2-(methylamino)cyclohexanone hydrochloride]
Antimicrobial effect in words (change of the original spike) [1]: strong antimicrobial properties | Antimicrobial effect in words (change of the original spike) [2]: strong antimicrobial properties | Antimicrobial effect in words (change of the original spike) [3]: strong antimicrobial properties | Antimicrobial effect in words (change of the original spike) [4]: strong antimicrobial properties | Antimicrobial effect in words (change of the original spike) [5]: strong antimicrobial properties | Antimicrobial effect in words (change of the original spike) [6]: strong antimicrobial properties | Antimicrobial effect in words (change of the original spike) [7]: some inhibitory activity
